# Measured values taken from patent US5545617A, “Therapeutic regulation of abnormal conjunctival goblet cell mucous secretion” (The Schepens Eye Research Institute, Inc., priority 1993, dated 1996).
# Where “and” joins values, the source holds several entries; their conditions need not be identical. Equal values may be shown once. Where a name gives a salt, the structure may show the parent alone. Read-outs that look alike come from different tables or passages of the source.
# What was measured:
# [1] = tested on: conjunctival goblet cell mucous secretion; test: in vivo rat model: topical agents, density of mucin-containing goblet cells (alcian blue/PAS);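 on all read-outs here: rat eyes dosed topically with 20 µl drops every 20 min over 1 hr, non-secreted goblet cells counted in three 0.16 mm^2 conjunctival areas, lower density means more mucous secretion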; conditions: for (Stimulus) Optimal Effective Conc. (M): Table 1; for (Stimulus) Max % Increase in Secretion: Table 1, at optimal effective conc.; for conjunctival goblet cell mucous secretion (in words): topical application, summary of Example II; for concentration giving the maximum effect on goblet cell density: topical; for goblet cell mucous secretion (in words): summary of Example I
# Description: Thus, the in vivo rat model can be used to study conjunctival goblet cell mucous secretion. With this model, the ocular surface of anesthetized rats is treated topically or subconjunctivally. After treatment, the animals are euthanized, the ocular surface is fixed, conjunctival tissue is removed and mucus in the secretory granules of goblet cells stained with alcian blue and periodic acid-Schiff's (PAS) reagents to indicate mucin-containing goblet cells. The number of mucin-containing goblet cells is then determined. A decrease in the number of mucin-containing goblet cells indicates an increase in goblet cell secretion.
# To determine the effect of topically applied solutions, experimental solutions (20 μl drops) were placed on each eye from the temporal region every 20 min for 1 hr. The solutions were carefully removed with a cotton-tipped applicator from the nasal region of the eyes before placement of the next drop or before euthanization. […] Because conjunctival goblet cell density is not uniform throughout the conjunctiva, care was taken to use a specific area for sampling. […] Conjunctival buttons were then dissected and tissue placed epithelial side up on gelatin-coated, glass microscope slides. […] Mucin contained in the secretory granules of the goblet cells was stained with alcian blue and periodic acid-Schiff (PAS) stain (79). The number of mucin-containing goblet cells was counted in a masked fashion using light microscopy (standard Zeiss microscope) at 160× magnification. The density of mucin-containing goblet cells was determined by averaging counts of goblet cells in three 0.16 mm^2 areas in each button. A decrease in mucin containing goblet cell number per unit area (density) indicated an increase in mucous secretion.
# The mucin-containing goblet cells stained purple and fuchsia with alcian blue and PAS, respectively. By focusing through the tissue, cells with moderate to intense staining and sharp, defined cell borders were considered non-secreted and were counted. Cells with very light stain, absence of color, indistinguishable color from background staining and fuzzy borders were considered cells that had secreted mucus and were not counted. Following these criteria, the non-secreted mucin-containing goblet cells in the three 0.16 mm^2 areas were counted, averaged and expressed as mucin-containing goblet cell density. Therefore, a decrease in mucin-containing goblet cell density indicated mucous secretion.
# To determine the effect of topically applied compounds, an experimental buffer containing the test compound (20 μl drops) was placed on one eye from the temporal region every 20 min for 1 hr unless otherwise indicated. […] The solutions were removed from the nasal region of the eye with a cotton-tipped applicator. After the 1 hr protocol, animals were euthanized with sodium pentobarbital.
# [2] = tested on: conjunctival goblet cell mucous secretion; conditions: 100 μg topical, rabbits, cited from earlier work
# [3] = tested on: conjunctival goblet cell density; conditions: long term exposure of rabbit ocular surface; cited from earlier work
# [4] = tested on: conjunctival goblet cell mucous secretion; test: local anesthetics on sensory stimulation (corneal debridement) of goblet cell mucous secretion; assay type: in vivo, rat
# Description: Rats were anesthetized with sodium pentobarbital (65 mg/kg).
# Fifteen min after application of local anesthetic, the central cornea of one eye was wounded by debridement (2-3 mm diameter area), the other was sham-debrided and 5 min later the animal was euthanized with intraperitoneal sodium pentobarbital ([…]).
# [5] = tested on: conjunctival goblet cells; test: light microscopy of H and E stained conjunctival sections after topical lidocaine; assay type: in vivo, rat; conditions: 1% topical
# Description: The globe of the eye was excised. The posterior half of the globe was removed, followed by removal of the lens and iris. The remaining tissue (the ocular surface) including the cornea, the limbus, and the bulbar conjunctiva was frozen in O. C. T. Compound (Miles Inc., Elkart, Ind.).
# Tissue sections (20 μm) were prepared from the ocular surface and stained with hematoxylin and eosin (H and E). Sections were examined using an Olympus Microscope (BH-2; Micro-Tech Optical, Inc., Hudson, Mass.).
# [6] = tested on: conjunctival goblet cell mucous secretion; conditions: cited from earlier work
# [7] = 10^-8 M topical, 1 hr, inferior conjunctiva
# [8] = 10^-8 M topical, 1 hr, Example II
# [9] = 10^-4 M topical, 1 hr, inferior conjunctiva
compound,measurement,setting,value
"NCCc1c[nH]c2ccc(O)cc12 [serotonin, 5-hydroxytryptamine]",decrease in mucin-containing goblet cell density from contralateral control,[1]; [7],54%
same,"mucin-containing goblet cell density, inferior conjunctiva",[1]; [8],148±27 cells
same,(Stimulus) Optimal Effective Conc. (M),[1],10^-8 M
same,(Stimulus) Max % Increase in Secretion,[1],54%
same,conjunctival goblet cell mucous secretion (in words),[1],stimulate conjunctival goblet cell mucous secretion
same,concentration giving the maximum effect on goblet cell density,"[1]; 1 hr, Example II",10^-8 M
"NCCc1ccc(O)c(O)c1 [dopamine, 3-hydroxytyramine]",decrease in mucin-containing goblet cell density from contralateral control,[1]; [7],64%
same,(Stimulus) Optimal Effective Conc. (M),[1],10^-8 M
same,(Stimulus) Max % Increase in Secretion,[1],64%
same,conjunctival goblet cell mucous secretion (in words),[1],stimulate conjunctival goblet cell mucous secretion
same,concentration giving the maximum effect on goblet cell density,"[1]; 1 hr, Example II",10^-8 M
"CNC[C@H](O)c1ccc(O)c(O)c1 [epinephrine, (-)-epinephrine]","electron microscopy of goblet cells, inferior bulbar conjunctiva",[1]; 1 μM (FIG. 5D),some of the goblet cells secreted mucus onto the ocular surface in an all or none fashion
same,goblet cell mucous secretion (in words),[1]; 100 μM topical,stimulated mucous secretion
same,decrease in mucin-containing goblet cell density from contralateral control,[1]; [9],46%
same,"mucin-containing goblet cell density, inferior conjunctiva","[1]; 10^-4 M topical, 1 hr, Example I, P<0.04 vs buffer",159±35 cells
same,"mucin-containing goblet cell density, inferior conjunctiva","[1]; 10^-6 M topical, 1 hr, Example I, unchanged vs buffer",200±33 cells
same,"mucin-containing goblet cell density, inferior conjunctiva","[1]; 10^-8 M topical, 1 hr, Example I, unchanged vs buffer",180±55 cells
same,(Stimulus) Optimal Effective Conc. (M),[1],10^-2 M
same,(Stimulus) Max % Increase in Secretion,[1],52%
same,conjunctival goblet cell mucous secretion (in words),[1],stimulate conjunctival goblet cell mucous secretion
same,concentration giving the maximum effect on goblet cell density,"[1]; 1 hr, Example II",10^-4 M
"CCCC[C@H](C)C(O)C#CC1CCC(=O)C1C/C=C\CCCC(=O)OC (stereo partly drawn) [FCE20700, 11-deoxy-13,14-didehydro-16(S)-methylester methyl PGE2]",goblet cells with mucous secretion,[2]; 0.5 hr,86.9%
same,goblet cells with mucous secretion,[2]; 2.5 hr,90.3%
"CNC[C@H](O)c1cccc(O)c1 [phenylephrine, L-phenylephrine hydrochloride]",conjunctival goblet cell density,[3],does not significantly affect conjunctival goblet cell density
same,decrease in mucin-containing goblet cell density from contralateral control,[1]; [9],40%
same,(Stimulus) Optimal Effective Conc. (M),[1],10^-4 M
same,(Stimulus) Max % Increase in Secretion,[1],40%
same,conjunctival goblet cell mucous secretion (in words),[1],stimulate conjunctival goblet cell mucous secretion
same,concentration giving the maximum effect on goblet cell density,"[1]; 1 hr, Example II",10^-4 M
Substance P,decrease in mucin-containing goblet cell density from contralateral control eye,"[1]; 10^-6 M topical, 1 hr",58%
same,mucin-containing goblet cell density,"[1]; 10^-6 M topical, 1 hr, Example II",77±18 cells
same,effect on mucin-containing goblet cell density,[1]; 10^-10 or 10^-8 M topical,not at 10^-10 or 10^-8 M
same,(Stimulus) Optimal Effective Conc. (M),[1],10^-6 M
same,(Stimulus) Max % Increase in Secretion,[1],42%
same,conjunctival goblet cell mucous secretion (in words),[1],stimulate conjunctival goblet cell mucous secretion
"CCN(CC)CC(=O)Nc1c(C)cccc1C [lidocaine, lidocaine hydrochloride]",effect on sensory stimulation of mucous secretion,[4]; 1% sub-conjunctival injection alone,inhibited sensory stimulation of mucous secretion
same,"mucin-containing goblet cells in treated, wounded eyes",[4]; 1% sub-conjunctival injection prior to the wound,100±28 cells
same,"mucin-containing goblet cells in treated, contralateral sham-wounded eyes","[4]; 1% sub-conjunctival injection, sham-wounded",98±24 cells
same,effect on sensory stimulation of mucous secretion,[4]; 1% topical alone,inhibited sensory stimulation of mucous secretion
same,effect on sensory stimulation of mucous secretion,[4]; 1% topical and sub-conjunctival injection,inhibited the sensory stimulation of goblet cell mucous secretion
same,"mucin-containing goblet cells in treated, contralateral sham-wounded eyes","[4]; 1% topical and sub-conjunctival injection, sham-wounded",110±25 cells
same,"mucin-containing goblet cells in treated, wounded eyes","[4]; 1% topical and sub-conjunctival injection, then wounded",132±21 cells
same,"mucin-containing goblet cells in treated, wounded eyes",[4]; 1% topical prior to the wound,84±7 cells
same,"mucin-containing goblet cells in treated, sham-wounded eyes","[4]; 1% topical, sham-wounded",78±5 cells
same,goblet cells detected in H- and E-stained sections,[5]; 5 min (FIG. 6B),some goblet cells
same,goblet cells detected in H- and E-stained sections,[5]; 10 min (FIG. 6C),numerous goblet cells
"CCCCC(C)(C)[C@H](O)/C=C/[C@H]1[C@H](O)CC(=O)[C@@H]1C/C=C\CCCC(=O)O [dmPGE2, 16,16-dimethyl-prostaglandin E2]","mucin-containing goblet cell density, inferior bulbar conjunctiva","[1]; 1 μM topical, 1 hr, vs control",did not differ significantly from control values
same,"mucin-containing goblet cell density, inferior bulbar conjunctiva","[1]; 10 μM topical, 1 hr, vs control",did not differ significantly from control values
same,decrease in mucin-containing goblet cell density from buffer-treated eyes,"[1]; 100 μM topical, 1 hr, inferior conjunctiva",30% and 39%
same,"mucin-containing goblet cell density, inferior bulbar conjunctiva","[1]; 100 μM topical, 1 hr, mean±SE",36±12 goblet cells/0.16 mm^2
same,goblet cell mucous secretion (in words),[1]; 100 μM topical,increased goblet cell mucous secretion from inferior but not superior conjunctiva
same,"mucin-containing goblet cell density, superior bulbar conjunctiva","[1]; 100 μM, 10 μM, 1 μM topical, 1 hr, vs contralateral control or buffer-treated eyes","Neither 100 μM, 10 μM, nor 1 μM dmPGE2 significantly altered the density"
same,"electron microscopy of goblet cells, inferior bulbar conjunctiva",[1]; 600 μM (FIG. 5B),the goblet cells secreted mucous onto the ocular surface
Nc1nc2c(nc(Br)n2[C@@H]2O[C@@H]3COP(=O)(O)O[C@H]3[C@H]2O)c(=O)[nH]1 [8-Br-cGMP],mucin discharge,[6],2-3 fold
"C[N+](C)(C)CCOC(N)=O.[Cl-] [carbachol, carbamyl choline chloride]",effect on mucin-containing goblet cell density,[1]; 10^-5 -10^-4 M topical,not at 10^-5 -10^-4 M
same,decrease in mucin-containing goblet cell density from contralateral control eye,"[1]; 10^-6 M topical, 1 hr",40%
same,effect on mucin-containing goblet cell density,[1]; 10^-7 M topical,decreased mucin-containing goblet cell density
same,(Stimulus) Optimal Effective Conc. (M),[1],10^-6 M
same,(Stimulus) Max % Increase in Secretion,[1],41%
same,conjunctival goblet cell mucous secretion (in words),[1],stimulate conjunctival goblet cell mucous secretion
same,concentration giving the maximum effect on goblet cell density,"[1]; 1 hr, Example II",10^-6 M
Nc1ncnc2c1nc(Br)n2[C@@H]1O[C@@H]2COP(=O)(O)O[C@H]2[C@H]1O [8-Br-cAMP],mucin discharge,[6],unaffected
Vasoactive Intestinal Peptide [VIP],decrease in mucin-containing goblet cell density from contralateral control,[1]; [7],39%
same,"mucin-containing goblet cell density, inferior conjunctiva",[1]; [8],150±23 cells
same,(Stimulus) Optimal Effective Conc. (M),[1],10^-8 M
same,(Stimulus) Max % Increase in Secretion,[1],39%
same,conjunctival goblet cell mucous secretion (in words),[1],stimulate conjunctival goblet cell mucous secretion
same,concentration giving the maximum effect on goblet cell density,"[1]; 1 hr, Example II",10^-8 M
"CCCOc1ccc(C(=O)OCCN(CC)CC)cc1N [proparacaine, Proparacaine hydrochloride]",inhibition of sensory stimulation of mucous secretion,"[4]; 0.5% topical, 15 min before corneal debridement",unable to inhibit sensory stimulation of mucous secretion
